Measured values published in US7897588B2, “Agents and methods for enhancing bone formation” (The Regents of the University of California, priority 2003, dated 2011).

Assays:
[1] = test system: M2 cells; assay: Adipogenesis of troglitazone-treated M2 cells (oil Red O staining, adipocyte count); assay type: cell-based, mouse; settings: M2 cells treated with Tro 10 μM, oxysterols 10 μM, 10 days
Description: (§1) Von Kossa and oil red O staining—Matrix mineralization in cell monolayers was detected by silver nitrate staining as previously described. Oil red O staining for detection of adipocytes was performed as previously described.
Test 1: M2 cells at 90% confluence were treated with vehicle (C), PPAR-γ activator, troglitazone 10 uM (Tro), alone or in combination with 10 μM oxysterols 20S-, 22R-, or 25S-hydroxycholesterol. After 8 days, adipocytes were identified by oil Red 0 staining and quantified by counting under a phase contrast microscope. FIG. 6A is a bar graph depicting the effect of oxysterols on reducing adipogenesis of MSC.
Test 2: (A) M2 cells at confluence were treated in RPMI containing 10% FBS with control vehicle or 10 μM troglitazone (Tro) in the absence or presence of 10 μM 20S or 22S oxysterols. After 10 days, adipocytes were visualized by oil Red O staining and quantified by light microscopy, shown in (B). Data from a representative of four experiments are shown, reported as the mean SD of quadruplicate determinations (p<0.001 for Tro vs. Tro+20S and Tro+22S). (C) M2 cells were treated at confluence with 10 μM Tro, alone or in combination with 10 μM 20S oxysterol. After 10 days, total RNA was isolated and analyzed for lipoprotein lipase (LPL), adipocyte P2 gene (aP2) or 18S rRNA expression by Northern blotting as described (Ref). Data from densitometric analysis of the Northern blot is shown in (D) as the average of duplicate samples, normalized to 18S rRNA.

[2] = test system: M2-10B4 mouse marrow stromal cell line; assay: Alkaline phosphatase (ALP) activity assay in M2 cells; assay type: cell-based; settings: for inhibition of oxysterol-induced alkaline phosphatase activity: 22R+20S, SC-560 10 μM, ACA 25 μM, AACOCF3 20 μM, PD98059 20 μM
Description: (§2) Cells: M2-10B4 mouse marrow stromal cell line obtained from American Type Culture Collection (ATCC, Rockville, Md., U.S.A.) was derived from bone marrow stromal cells of a (C57BL/6J×C3H/HeJ) F1 mouse, and support human and murine myelopoiesis in long-term cultures (as per ATCC) and have the ability to differentiate into osteoblastic and adipocytic cells. Unless specified, these cells were cultured in RPMI 1640 containing 10% heat-inactivated FBS, and supplemented with 1 mM sodium pyruvate, 100 U/ml penicillin, and 100 […] (all from Irvine Scientific).
Alkaline phosphatase activity assay: Colorimetric alkaline phosphatase (ALP) activity assay on whole cell extracts was performed as previously described.
Test 1: M2 cells at confluence were treated with control vehicle (C), or 10 μM oxysterols, in an osteogenic medium consisting of RPMI 1640 to which 10% fetal bovine serum (FBS), 50 μg/ml ascorbate and 3 mM beta-glycerophosphate (βGP) were added. After 3 days of incubation, alkaline phosphatase (ALP) activity was determined in cell homogenates by a colorimetric assay. […] FIG. 3A is a bar graph depicting the effect of various oxysterols on alkaline phosphatase activity in M2 cells.
M2 cells at confluence were treated in osteogenic medium with control vehicle (C) or a combination of 22R and 20S oxysterols, at the indicated concentrations. ALP activity was measured after 3 days as described above. […] FIG. 3B is a bar graph depicting the effect of a combination of oxysterols at various doses on alkaline phosphatase activity in M2 cells.
Test 2: M2 cells were grown in RPMI medium containing 10% fetal bovine serum (FBS). At confluence, the cells were treated in RPMI containing 5% FBS plus ascorbate at 50 μg/ml and β-glycerophosphate at 3 mM to induce osteoblastic differentiation. Adipogenic differentiation was induced by treating the cells in growth medium plus 10 ˜M troglitazone. A vehicle (C) or oxysterol treatment was applied to cells in a variety of doses (in μM): 20S-Hydroxycholesterol, 25-Hydroxycholesterol, 22R-Hydroxycholesterol; 22S-Hydroxycholesterol; 7-ketocholesterol. Cells were always treated at 90% confluence. After 4 days, alkaline phosphatase activity was determined in whole cell lysates and normalized to protein. Alternatively, MSC cultures were prepared and treated with oxysterols as described above. Cells were treated at 90% confluence with the combination of 22R-Hydroxycholesterol and 20S-Hydroxycholesterol, each at 5 uM, for 4 to 96 hours. The oxysterols where removed and fresh media without oxysterols was added for a total duration of 96 hours. Alkaline phosphatase activity was measured in whole cell extracts and normalized to protein.
M2 cells were treated at 90% confluence with vehicle (C), or oxysterols 20S-Hydroxycholesterol or 22S-Hydroxycholesterol at (0.5 μM) or (1 μM), in the absence or presence of cytochrome P450 inhibitor (SKF525A 10 μM (+)). MSC cultures were also treated at 90% confluence with vehicle (C), or 20S-Hydroxycholesterol (2 μM), in the absence or presence of cytochrome P450 […] (Benzylimidazole 50 μM) or SKF525A (10 μM). After 4 days, alkaline phosphatase activity was measured in whole cell extracts and normalized to protein.
Next, a combination of 22R and 20S oxysterols (RS, 2.5 μM each) were added in the presence or absence of SC as indicated. After 3 days, ALP activity was measured as described earlier. […] (B) M2 cells were treated as described in (A) and after 10 days matrix mineralization in cultures was quantified by a ^45Ca incorporation assay as described earlier.

[3] = test system: M2-10B4 mouse marrow stromal cell line; assay: Matrix mineralization in M2 cells (von Kossa staining, 45Ca incorporation assay); assay type: cell-based; settings: 22R+20S, 10 days, SC-560 10 μM, ACA 25 μM, AACOCF3 20 μM, PD98059 20 μM
Description: as §2, §1
^45Ca incorporation assay—Matrix mineralization in cell monolayers was quantified using the ^45Ca incorporation assay as previously described.
M2 cells at confluence were treated in osteogenic medium with control vehicle or 5 μM oxysterols, alone or in combination as indicated. After 14 days, mineralization was identified by a von Kossa staining, which appears black. FIG. 3C is a depiction of von Kossa staining of M2 cells exposed to various conditions.
M2 cells were treated with control vehicle (C) or a combination of 22R and 20S oxysterols at increasing concentrations. After 14 days, matrix mineralization in cultures was quantified using a ^45Ca incorporation assay. […] FIG. 3D is a bar graph depicting the effect of a combination of oxysterols at various doses on calcium incorporation in M2 cells.
(§3) Next, a combination of 22R and 20S oxysterols (RS, 2.5 μM each) were added in the presence or absence of SC as indicated. After 3 days, ALP activity was measured as described earlier. […] (B) M2 cells were treated as described in (A) and after 10 days matrix mineralization in cultures was quantified by a ^45Ca incorporation assay as described earlier. Results from a representative of three experiments are shown, reported as the mean±SD of quadruplicate determinations, normalized to protein concentration. (C) M2 cells were pretreated with 20 μM SC for 4 hours, followed by the addition of RS in the presence or absence of SC as described above. After 8 days, total RNA was isolated and analyzed for osteocalcin (Osc) and 18S rRNA expression by Northern blotting as previously described. Data from densitometric analysis of the Northern blot is shown in (D) as the average of duplicate samples, normalized to 18S rRNA. (E) M2 cells at confluence were pretreated for 2 hours with control vehicle (C), or PLA2 inhibitors ACA (25 μM) and AACOCF3 (AAC, 20 μM), in osteogenic medium. Next, a combination of 22R and 20S oxysterols (RS, 2.5 μM) was added in the presence or absence of the inhibitors as indicated. After 3 days, ALP activity was measured as previously described. Data from a representative of three experiments are shown, reported as the mean±SD of quadruplicate determinations, normalized to protein concentration (p<0.01 for RS vs. RS+ACA and RS+AAC). (F) M2 cells were treated as described in (E). After 10 days, matrix minerliazation in cultures was quantified using a ^45Ca incorporation assay as previously described. Results from a representative of three experiments are shown, reported as the mean of quadruplicate determinations±SD, normalized to protein concentration (p<0.01 for RS vs. RS+ACA and RS+AAC).
(A) M2 cells at confluence were pretreated for four hours with RPMI containing 1% FBS, followed by treatment with control vehicle or 5 μM 20S oxysterol for 1, 4, or 8 hours. Next total cell extracts were prepared and analyzed for levels of native or phosphorylated ERK (pERK) using specific antibodies as previously described.

[4] = test system: marrow stromal cells; assay: Osteogenic activity of marrow stromal cells (alkaline phosphatase, mineral formation), overall; assay type: cell-based, mouse; settings: M2 cells; SC-560 at 1-20 μM; NS-398 at 20 μM
Description: as §3, with “Data from a representative of three experiments are shown, reported as the mean±SD of quadruplicate determinations, normalized to protein concentration (p<0.01 for RS vs. RS+ACA and RS+AAC). (F) M2 cells were treated as described in (E).” left out, “Results from a representative of three experiments are shown, reported as the mean of quadruplicate determinations±SD, normalized to protein concentration (p<0.01 for RS vs. RS+ACA and RS+AAC).” left out

[5] = test system: M2 cells; assay: Toxicity of COX inhibitors in M2 cell cultures; assay type: cell-based, mouse

## CC(C)CCC[C@@H](C)[C@H]1CC[C@H]2[C@@H]3C(=O)C=C4C[C@@H](O)CC[C@]4(C)[C@H]3CC[C@]12C [7K, 7-ketocholesterol, reference compound]
[1]
  inhibition of adipogenesis: unable to inhibit
[2]; osteogenic medium, 10 μM oxysterols, 3 days
  induction of alkaline phosphatase activity: did not induce

## CCCCC/C=C\C/C=C\C/C=C\C/C=C\CCCC(=O)C(F)(F)F [AACOCF3]
[3]
  inhibition of oxysterol-induced mineralization: inhibited
[2]
  inhibition of oxysterol-induced alkaline phosphatase activity: inhibited

## CCCCCc1ccc(/C=C/C(=O)Nc2ccccc2C(=O)O)cc1 [ACA]
[3]
  inhibition of oxysterol-induced mineralization: inhibited
[2]
  inhibition of oxysterol-induced alkaline phosphatase activity: inhibited

## CS(=O)(=O)Nc1ccc([N+](=O)[O-])cc1OC1CCCCC1 [NS-398]
[4]
  inhibition of the osteogenic effects of oxysterol combinations: negligible inhibitory effects
[5]
  highest non-toxic dose: 20 µM

## COc1cccc(-c2cc(=O)c3ccccc3o2)c1N [PD98059]
[3]
  inhibition of oxysterol-induced mineralization: inhibited

## CCCCC[C@H](O)/C=C/[C@H]1[C@H](O)CC(=O)[C@@H]1C/C=C\CCCC(=O)O [PGE2, prostaglandin E2]
[2]; 1 μM PGE2 (data not shown)
  reversal of the effect of the COX-1 inhibitor on oxysterol-induced alkaline phosphatase activity: reversed

## CCCC(C(=O)OCCN(CC)CC)(c1ccccc1)c1ccccc1.Cl [SKF525A]
[2]; 20S or 22S 0.5 or 1 μM, SKF525A 10 μM, 4 days
  effect on the osteogenic effects of the oxysterols (alkaline phosphatase activity): potentiated

## CCCCC/C=C\C/C=C\C/C=C\C/C=C\CCCC(=O)O [arachidonic acid]
[2]; 25 μM arachidonic acid (data not shown)
  reversal of the effect of the PLA2 inhibitors on oxysterol-induced alkaline phosphatase activity: reversed
